In patent US20240391912A1, “MORPHIC FORMS OF CFT7455 AND METHODS OF MANUFACTURE THEREOF” (C4 THERAPEUTICS, INC., priority 2022, published 2024):
In brackets after ≈: the same amount, converted by molar mass.

How the values were obtained:
[1] = Crystallization of Compound 5 at room temperature by fast evaporation; type: physicochemical
Method: Based on approximate solubility results, about 20 mg of Compound 5 Form V was dissolved in 1-6 mL of solvents. […] The solid residue was investigated by XRPD. For samples with different XRPD patterns, ^1H-NMR was performed.

[2] = Approximate solubility of Compound 5 polymorphs in EtOH:DCM (v:v=1:4); type: physicochemical; settings: EtOH:DCM (v:v = 1:4), 25° C.
Method: Four polymorphs (Form V, Form VI, Form VII and Form VIII) were weighed respectively and a suitable amount of solvent mixture EtOH:DCM (v:v=1:4) was added. The obtained samples were stirred at a rate of 400 rpm at 25° C.

[3] = Equilibration of Compound 5 Form V with solvents at 25° C. for 1 week (XRPD); type: physicochemical
Method: The obtained suspensions were centrifuged at 14,000 rpm. The solid parts (wet cakes) were investigated by XRPD.

[4] = Crystallization of Compound 5 by addition of anti-solvent; type: physicochemical
Method: The obtained solutions were filtered through a 0.45 μm syringe membrane filter. […] Precipitates were investigated by XRPD. For samples with different XRPD patterns, ^1H-NMR was performed.

[5] = Characterization of polymorphs and pseudo-polymorphs of Compound 5; type: physicochemical
[6] = Approximate solubility of Compound 5 Form V at 25° C. (visual observation / HPLC); type: physicochemical; settings: for solubility: solubilized at about 25° C.
Method: About 5 mg of Compound 5 Form V was weighed to an 8 mL glass vial. 100 μL aliquots of each solvent were added to dissolve the drug substance at 25° C. Vortex and sonication were applied to assist dissolution. The maximum volume of each solvent added is 1 mL. Approximate solubility was determined by visual observation.
For low solubility samples: Aliquots of selected solvent were added to 5 mg of Compound 5 create a suspension. The suspensions were kept at 25° C. for 24 hours. The suspension was taken out and centrifuged. To eliminate solvent effect, 50 μL or 100 μL of supernatant was added into a 2 mL glass vial and evaporated at ambient condition (22-25° C., 30-60% RH).

[7] = Crystallization of Compound 5 from hot saturated solutions by fast cooling; type: physicochemical; settings: fast cooling to about 0° C.
Method: Based on approximate solubility results, about 30 mg of Compound 5 Form V was dissolved in a minimal amount of selected solvent at 50° C. […] No precipitate came out by fast cooling.

[8] = biological target: T1, Aiolos (also known as IKZF3) (Homo sapiens, UniProt Q9UKT9); assay: Aiolos degradation in PBMC of patients (mass spectrometry); type: in vivo; settings: Patients 2, 4, 5; oral 50 μg/day or 25 μg/day; 4 hours, day 7, 14, 21 of cycle 1
T1 construct: total peripheral blood mononuclear cell (PBMC) population extracted from whole blood samples of Patient 2, Patient 4, and Patient 5; endogenous in cells; host or cells: peripheral blood mononuclear cells (PBMC) from whole blood of treated patients
Method: (§1) Ikaros (also known as IKZF1) and Aiolos (also known as IKZF3) degradation was evaluated using mass spectrometry analysis of total peripheral blood mononuclear cell (PBMC) population extracted from whole blood samples of Patient 2, Patient 4, and Patient 5 taken on the first day of the first cycle (cycle 1, day 1 or C1D1) prior to treatment, 4 hours post Compound 1 treatment, and on day 7, day 14, and day 21 of the treatment cycle.

[9] = system: involved and uninvolved free light chains; assay: Reduction in dFLC after single agent exposure to Compound 1; type: in vivo, human
Method: Using samples collecting in Example 24, the difference between involved free light chains and uninvolved free light changes, or dFLC, for Patients 1-3 were calculated using the following formula:
[Abnormal light chainbaseline−normal light chainbaseline]−[Abnormal light chainnadir−normal light chainnadir]/[Abnormal light chainbaseline−normal light chainbaseline]*100 dFLC equation: […]

[10] = system: OCI-LY10 human DLBCL intracranial xenografts; assay: OCI-LY10 human DLBCL intracranial xenograft study, survival
Method: Agents were tested in the OCI-LY10 human DLBCL intracranial model. […] Rituximab was administered from day 1 via i.v. once per week. Rituximab was dosed at 10 and 30 mg/kg. Individual mouse was euthanized once its body weight loss was over 20%.
The cells growing in an exponential growth phase were harvested and counted for tumor inoculation.
99 CB17 SCID mice were inoculated by intracranial injection with OCI-LY10 cells (1×10^6) for tumor development.
Tumor inoculation: Intraperitoneally injected avertin at dosage of 240 mg/kg to anaesthetize the CB17 SCID mice. Fixed the head of the anaesthetized mice to the brain solid positioner, sterilized the head skin with 70% alcohol. […] Punched a hole about 2 mm right of the anterior fontanel and 1 mm ahead the coronal on the skull with a 25 G needle. Cell suspensions were mixed and certain amount was sucked into the 5 μL injector slowly to avoid bubble formation. The cells were swapped around the needle with alcohol to avoid extracranial tumor genesis. The needle was stuck vertically into the formed hold and 5 μL of cell suspension containing 1×10^6 OCI-LY10 cells was slowly injected for over 1 minute. The injector was then held for another 1 minute and then pulled back to decrease the drainage of the cells suspension. The skin was closed with tweezers and then sewed. Meloxicam was then injected 30 min after the surgery at dosage of 5 mg/kg to relieve the pain. The animals were kept under monitoring until they were awake.
Animals were grouped for treatment on day 7 after tumor inoculation.
At the time of routine monitoring, the animals were daily checked for any effects of tumor growth and treatments on normal behavior such as mobility, food and water consumption (by looking only), body weight gain/loss (body weights were measured twice weekly), eye/hair matting and any other abnormal effect as stated in the protocol. Death and observed clinical signs were recorded on the basis of the numbers of animals within each subset.

[11] = biological target: T2, Ikaros (also known as IKZF1) (Homo sapiens, UniProt Q13422+Q96SW2); assay: Ikaros degradation in PBMC of patients (mass spectrometry); type: in vivo; settings: Patients 2, 4, 5; oral 50 μg/day or 25 μg/day; 4 hours, day 7, 14, 21 of cycle 1
T2 construct: total peripheral blood mononuclear cell (PBMC) population extracted from whole blood samples of Patient 2, Patient 4, and Patient 5; endogenous in cells; host or cells: peripheral blood mononuclear cells (PBMC) from whole blood of treated patients
Method: as §1

[12] = Compound 1, 0.01 mg/kg, p.o., QD

T1 sequence (Q9UKT9 whole entry): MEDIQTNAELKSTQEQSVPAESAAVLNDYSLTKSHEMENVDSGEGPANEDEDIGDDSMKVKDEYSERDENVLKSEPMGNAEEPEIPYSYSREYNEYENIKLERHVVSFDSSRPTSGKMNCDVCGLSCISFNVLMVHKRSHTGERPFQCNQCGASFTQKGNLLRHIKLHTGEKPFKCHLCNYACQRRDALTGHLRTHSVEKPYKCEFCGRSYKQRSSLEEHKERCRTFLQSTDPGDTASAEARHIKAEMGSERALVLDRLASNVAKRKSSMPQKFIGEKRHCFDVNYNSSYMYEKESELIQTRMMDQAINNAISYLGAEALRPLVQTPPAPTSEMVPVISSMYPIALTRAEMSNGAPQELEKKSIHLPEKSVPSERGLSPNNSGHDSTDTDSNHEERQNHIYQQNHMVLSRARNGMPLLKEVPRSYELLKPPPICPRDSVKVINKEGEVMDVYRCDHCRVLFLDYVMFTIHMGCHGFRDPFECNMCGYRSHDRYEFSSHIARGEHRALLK
T1 sequence (Q96SW2 whole entry, further chain): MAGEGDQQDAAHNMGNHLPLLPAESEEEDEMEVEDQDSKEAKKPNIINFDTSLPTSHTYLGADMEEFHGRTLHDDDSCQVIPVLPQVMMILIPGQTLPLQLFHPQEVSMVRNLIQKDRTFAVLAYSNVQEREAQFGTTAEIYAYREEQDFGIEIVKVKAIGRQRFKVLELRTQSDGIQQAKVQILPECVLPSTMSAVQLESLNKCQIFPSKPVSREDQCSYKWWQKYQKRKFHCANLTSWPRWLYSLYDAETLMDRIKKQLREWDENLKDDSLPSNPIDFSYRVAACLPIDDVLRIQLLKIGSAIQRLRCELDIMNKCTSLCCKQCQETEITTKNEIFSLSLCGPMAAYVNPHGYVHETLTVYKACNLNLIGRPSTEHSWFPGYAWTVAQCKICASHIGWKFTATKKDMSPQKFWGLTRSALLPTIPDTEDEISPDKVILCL
T1 sequence (Q16531 whole entry partner): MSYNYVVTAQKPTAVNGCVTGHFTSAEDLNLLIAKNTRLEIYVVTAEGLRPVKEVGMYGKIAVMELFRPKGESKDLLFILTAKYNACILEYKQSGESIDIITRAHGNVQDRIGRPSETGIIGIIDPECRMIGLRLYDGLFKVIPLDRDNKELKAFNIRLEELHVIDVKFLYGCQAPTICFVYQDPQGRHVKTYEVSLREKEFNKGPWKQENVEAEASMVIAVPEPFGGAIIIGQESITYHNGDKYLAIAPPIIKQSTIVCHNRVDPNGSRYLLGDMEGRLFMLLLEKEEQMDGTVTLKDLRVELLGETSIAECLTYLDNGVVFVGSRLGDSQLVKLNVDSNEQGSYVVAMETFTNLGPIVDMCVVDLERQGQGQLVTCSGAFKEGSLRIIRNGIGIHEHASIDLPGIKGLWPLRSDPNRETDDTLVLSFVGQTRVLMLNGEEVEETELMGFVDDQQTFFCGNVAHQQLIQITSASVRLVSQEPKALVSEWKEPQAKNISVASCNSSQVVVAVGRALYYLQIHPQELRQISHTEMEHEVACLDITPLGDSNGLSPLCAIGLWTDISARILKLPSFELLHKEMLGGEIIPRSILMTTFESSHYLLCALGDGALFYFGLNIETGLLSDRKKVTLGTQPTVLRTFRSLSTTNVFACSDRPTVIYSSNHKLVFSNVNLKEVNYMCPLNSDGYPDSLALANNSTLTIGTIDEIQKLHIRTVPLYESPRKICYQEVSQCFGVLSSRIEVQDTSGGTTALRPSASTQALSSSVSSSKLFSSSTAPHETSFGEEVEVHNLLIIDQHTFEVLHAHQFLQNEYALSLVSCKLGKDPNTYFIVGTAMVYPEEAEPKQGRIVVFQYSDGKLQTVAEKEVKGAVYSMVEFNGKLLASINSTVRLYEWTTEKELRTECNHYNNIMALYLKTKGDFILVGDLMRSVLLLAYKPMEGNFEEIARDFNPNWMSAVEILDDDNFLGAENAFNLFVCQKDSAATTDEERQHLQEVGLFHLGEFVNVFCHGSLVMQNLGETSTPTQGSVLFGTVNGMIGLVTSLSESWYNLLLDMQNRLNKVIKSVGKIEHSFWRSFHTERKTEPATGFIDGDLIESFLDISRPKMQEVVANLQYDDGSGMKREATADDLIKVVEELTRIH
T2 sequence (Q13422 whole entry): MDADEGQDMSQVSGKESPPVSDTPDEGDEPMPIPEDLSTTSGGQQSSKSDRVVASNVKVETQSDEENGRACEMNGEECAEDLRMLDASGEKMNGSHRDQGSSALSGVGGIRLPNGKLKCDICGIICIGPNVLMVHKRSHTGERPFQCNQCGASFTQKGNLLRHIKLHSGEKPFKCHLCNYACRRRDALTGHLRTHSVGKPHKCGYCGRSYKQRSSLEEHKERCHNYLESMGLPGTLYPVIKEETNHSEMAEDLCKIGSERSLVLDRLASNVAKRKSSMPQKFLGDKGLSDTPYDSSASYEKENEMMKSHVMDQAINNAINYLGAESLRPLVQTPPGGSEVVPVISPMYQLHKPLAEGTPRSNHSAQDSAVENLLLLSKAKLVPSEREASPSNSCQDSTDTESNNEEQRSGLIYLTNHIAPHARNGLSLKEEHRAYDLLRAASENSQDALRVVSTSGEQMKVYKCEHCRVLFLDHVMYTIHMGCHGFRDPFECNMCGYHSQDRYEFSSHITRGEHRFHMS
T2 sequence (Q96SW2 whole entry): as the sequence (Q96SW2 whole entry, further chain) above
T2 sequence (Q16531 whole entry partner): as the sequence (Q16531 whole entry partner) above

O=C1CCC(N2C(=O)c3cccc4c(Cc5ccc(CN6CCOCC6)cc5)ccc2c34)C(=O)N1 (racemic) [Compound 5 Form V]
XRPD ([1]; fast evaporation from 1-Methyl-2-pyrrolidinone): Form VII
XRPD ([1]; fast evaporation from Benzyl alcohol): Form V
XRPD ([1]; fast evaporation from Chloroform): Amorphous form
XRPD ([1]; fast evaporation from DMSO, room temperature, dry nitrogen flow): Form VI
XRPD ([1]; fast evaporation from THF): Form V
Additional analysis (appearance of residue) ([1]; fast evaporation from Trifluoroethanol): Oil
Additional analysis 1H-NMR: DMSO ([1]; residue (Form VI) of fast evaporation from DMSO): ^1H-NMR: 0.4 equiv. DMSO
Additional analysis 1H-NMR: NMP ([1]; residue (Form VII) of fast evaporation from 1-Methyl-2-pyrrolidinone, 2 unknown peaks): ^1H-NMR: 1.6 equiv. NMP;
Approximate solubility (visual appearance) ([2]; concentration 5 mg/mL): Suspension
Approximate solubility (visual appearance) ([2]; concentration 10 mg/mL, listed as Form V): Suspension
Approximate solubility (visual appearance) ([2]; concentration 20 mg/mL, listed as Form V): Suspension
XRPD ([3]; equilibration in Acetone): Form V
XRPD ([3]; equilibration in Benzyl alcohol): Form V
XRPD ([3]; equilibration in Chloroform): Form V
XRPD ([3]; equilibration in DMF): Form V
XRPD ([3]; equilibration in MeOH/DCM (v:v = 1:1)): Form V
XRPD ([3]; equilibration in Pyridine, wet cake): Form V
XRPD ([3]; equilibration in THF): Form V
XRPD ([3]; equilibration in Trifluoroethanol): Form V
Additional analysis 1H-NMR: DMF ([4]; precipitate (Form VIII) from DMF(1.0 mL)/H2O (2.0 mL)): 2 equiv. DMF
XRPD ([4]; solvent DMF(1.0 mL), anti-solvent H2O (2.0 mL)): Form VIII
Residual solvent (by 1H-NMR): THF [5]: 0.4% residual of
Endothermic onset (by DSC) ([5]; DSC): onset at 220.0 °C
Dehydration (by DSC) ([5]; DSC, listed as Form V): Tonset 38.5° C.;
Crystallinity (by XRPD) ([5]; XRPD method 2): Crystalline
Weight loss (by TGA) ([5]; at 140° C.): 5.1% at 140 °C
Solubility (mg/mL) at 25° C. ([6]; 1,4-Dioxane, tested by HPLC): 2.3 mg/mL (≈ 4.9 mM)
Solubility (mg/mL) at 25° C. ([6]; 1-Methyl-2-pyrrolidinone, tested by observation): >50 mg/mL
Solubility (mg/mL) at 25° C. ([6]; 2-Me THF, tested by HPLC): 0.2 mg/mL (≈ 0.426 mM)
Solubility (mg/mL) at 25° C. ([6]; Acetic acid, tested by HPLC): 5.5 mg/mL (≈ 11.7 mM)
Solubility (mg/mL) at 25° C. ([6]; Acetone, tested by HPLC): 3.3 mg/mL (≈ 7.03 mM)
Solubility (mg/mL) at 25° C. ([6]; Acetonitrile, tested by HPLC): 2.2 mg/mL (≈ 4.69 mM)
Solubility (mg/mL) at 25° C. ([6]; Anisole, tested by HPLC): 1.1 mg/mL (≈ 2.34 mM)
Solubility (mg/mL) at 25° C. ([6]; Benzyl alcohol, tested by observation): 12 to 25 mg/mL
Solubility (mg/mL) at 25° C. ([6]; Chloroform, tested by observation): 5 to 10 mg/mL
Solubility (mg/mL) at 25° C. ([6]; DMF, tested by observation): 25 to 50 mg/mL
Solubility (mg/mL) at 25° C. ([6]; DMSO, tested by observation): >50 mg/mL
Solubility (mg/mL) at 25° C. ([6]; Ethanol, tested by HPLC): 0.6 mg/mL (≈ 1.28 mM)
Solubility (mg/mL) at 25° C. ([6]; Ethyl acetate, tested by HPLC): 0.1 mg/mL (≈ 0.213 mM)
Solubility (mg/mL) at 25° C. ([6]; MeOH/DCM (v:v = 1:1), tested by observation): ~5 mg/mL (≈ 10.6 mM)
Solubility (mg/mL) at 25° C. ([6]; Methanol, tested by HPLC): 0.2 mg/mL (≈ 0.426 mM)
Solubility (mg/mL) at 25° C. ([6]; Propylene glycol methyl ether, tested by HPLC): 2.3 mg/mL (≈ 4.9 mM)
Solubility (mg/mL) at 25° C. ([6]; Propylene glycol, tested by HPLC): 3.4 mg/mL (≈ 7.24 mM)
Solubility (mg/mL) at 25° C. ([6]; Pyridine, tested by observation): 25 to 50 mg/mL
Solubility (mg/mL) at 25° C. ([6]; THF, tested by HPLC): 3.8 mg/mL (≈ 8.09 mM)
Solubility (mg/mL) at 25° C. ([6]; Toluene, tested by HPLC): 0.2 mg/mL (≈ 0.426 mM)
Solubility (mg/mL) at 25° C. ([6]; Trifluoroethanol, tested by observation): 25 to 50 mg/mL
solubility ([6]; in 1-methyl-2-pyrrolidinone): at least 50 mg/mL
solubility ([6]; in DMSO): at least 50 mg/mL
Comments ([7]; 1-Methyl-2-pyrrolidinone, 50° C.): Clear solution
Comments ([7]; Acetone, dissolved at 50° C.): Clear solution
Comments ([7]; Benzyl alcohol, 50° C.): Clear solution
Comments ([7]; Chloroform, 50° C.): Clear solution
Comments ([7]; DMF, 50° C.): Clear solution
Comments ([7]; Pyridine, 50° C.): Clear solution
Comments ([7]; THF, 50° C.): Clear solution
Comments ([7]; Trifluoroethanol, 50° C.): Clear solution

O=C1CC[C@H](N2C(=O)c3cccc4c(Cc5ccc(CN6CCOCC6)cc5)ccc2c34)C(=O)N1 [Compound 1, (S)-3-(6-(4-(morpholinomethyl)benzyl)-2-oxobenzo[cd]indol-1(2H)-yl)piperidine-2,6-dione]
Aiolos (IKZF3) degradation in PBMC compared to baseline [8]: deep degradation
% Change at Nadir in dFLC ([9]; Patient 1, first dose 50 μg oral, no extramedullary disease, ∇ (down)): ∇ 48.2%
% Change at Nadir in dFLC ([9]; Patient 2, first dose 50 μg oral, Multiple Plasmacytomas, ∇ (down)): ∇ 78.1%
% Change at Nadir in dFLC ([9]; Patient 3, first dose 50 μg oral, Lytic Bone Lesions, ∇ (down)): ∇ 41.0%
% Change at Nadir in dFLC ([9]; Patient 4, first dose 50 μg oral, no extramedullary disease, printed with Δ (up)): Δ 56.3%
extension of survival time ([10]; Compound 1 0.01 mg/kg p.o. once per day, p=0.001): 35.7%
Median Survival (Days), ± SEM [10, 12]: 19.00 ± 1.41 days
Survival time extension (%) [10, 12]: 35.7%
Ikaros (IKZF1) degradation in PBMC compared to baseline [11]: deep degradation
